In publication PMC8147781, “Discovery of Pyrrolidine-2,3-diones as Novel Inhibitors of P. aeruginosa PBP3” (Antibiotics, 2021):
Converted amounts (≈) assume the structure as drawn.

Assays:
[1] = target: T1, PBP3 of P. aeruginosa (PaPBP3) (Pseudomonas aeruginosa, UniProt G3XD46); assay: S2dfluo fluorescence transpeptidase assay; assay type: biochemical; conditions: 300 nM PaPBP3, 30 min preincubation, 37 °C; for IC50: read-out: IC50 Determination with PaPBP3, S2dfluo Assay
T1 construct: P. aeruginosa PBP3 (amino acids 40 to 563); His-tag; made in house; host or cells: E. coli BL21 (DE3) Rosetta, plasmid pET41_PBP-3
T1 sequence (G3XD46 40-563): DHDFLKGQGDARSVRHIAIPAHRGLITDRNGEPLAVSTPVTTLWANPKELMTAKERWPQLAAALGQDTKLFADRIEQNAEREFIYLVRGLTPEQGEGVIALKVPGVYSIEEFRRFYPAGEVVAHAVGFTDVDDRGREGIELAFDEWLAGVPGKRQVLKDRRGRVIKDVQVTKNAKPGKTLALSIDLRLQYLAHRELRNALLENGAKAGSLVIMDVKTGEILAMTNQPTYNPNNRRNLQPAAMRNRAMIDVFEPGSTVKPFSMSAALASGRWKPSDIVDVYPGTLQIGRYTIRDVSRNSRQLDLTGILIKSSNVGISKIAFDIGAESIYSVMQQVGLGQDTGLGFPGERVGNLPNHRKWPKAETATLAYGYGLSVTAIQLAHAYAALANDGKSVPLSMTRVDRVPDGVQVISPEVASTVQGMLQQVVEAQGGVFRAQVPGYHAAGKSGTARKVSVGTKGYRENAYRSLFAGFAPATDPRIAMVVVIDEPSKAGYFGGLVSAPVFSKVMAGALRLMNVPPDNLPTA
Method: The assays were carried out in the presence of 5% DMSO and 0.01% Triton X100 to avoid the formation of colloidal structures and adsorption of protein and/or compounds to surfaces. The Z’-factor determined for the assay was 0.73 ± 0.28, indicating the suitability and robustness of the assay for high throughput screening (HTS) (Figure 1B,C).
The activity of soluble ^PaPBP3 (300 nM) was measured in the presence of 0.8 mM S2d, 1 mM D-alanine and 0.5 mM mBBr for 25 min by monitoring the increase in the fluorescence intensity of mBBr at Ex/Em: 394/490 nm using an Infinite M1000 microplate reader (Tecan, Männedorf, Switzerland). To test the effect of inhibitors, 100 µM or 0.8 to 100 µM of compounds diluted in 96% DMSO were incubated for 30 min and 450 rpm with 300 nM soluble PBP3. The incubation period was set to improve the binding of non-covalent inhibitors and 0.01% Triton X100 (Sigma-Aldrich, Taufkirchen, Germany) was added to prevent aggregation of compounds. The enzyme reaction was started by adding a substrate mix of 0.8 mM S2d and […]. The enzyme, compound and substrate mix were mixed 1:1, pipetted with a Liquidator 96 (Melter Toledo, Gießen, Germany) and the fluorescence intensity was directly monitored with an Infinite M1000 microplate reader (Tecan) at Ex/Em: 394/490 nm. The assay was performed in black, flat-bottom 96-well microplates (Greiner Bio-One, Kremsmünster, Austria) at 37 °C in Sorensen Phosphate Buffer (57 mM Na2HPO4 and 10 mM KH2PO4, pH 7.5 + 0.01% Triton X-100). The velocity of the PBP3 reaction was calculated in the presence of each concentration of compound and the velocity values were used to estimate IC50 by sigmoidal nonlinear regression, using Prism v.9 software (San Diego, CA, USA) and the velocity of the reaction at each concentration.

[2] = test system: E. coli Neumann; assay: MIC broth microdilution, E. coli; assay type: cell-based; conditions: Escherichia coli; Table S3; read-out: MIC (µM) E. coli Neumann
Outline: (§1)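 CLSI broth microdilution in cation-adjusted Mueller Hinton broth, 5 × 10^4 bacteria per well with 1:2 serial compound dilutions, PMBN added where applicable. MIC read visually after 18 h at 37 °C. Confirmation by 10% PrestoBlue, fluorescence at Ex/Em 550/595 nm after 30 min.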

[3] = test system: K. pneumoniae clinical isolate; assay: MIC broth microdilution, K. pneumoniae; assay type: cell-based; conditions: Klebsiella pneumoniae; Table S3
Outline: as §1

[4] = test system: A. baumannii ATCC15308; assay: MIC broth microdilution, A. baumannii; assay type: cell-based; conditions: 10 µg/mL PMBN
Outline: as §1

[5] = test system: S. pneumoniae; assay: MIC broth microdilution, S. pneumoniae; assay type: cell-based; conditions: Streptococcus pneumoniae; Table S3; read-out: MIC (µM) S. pneumoniae
Outline: as §1

[6] = test system: B. subtilis 168; assay: MIC broth microdilution, B. subtilis; assay type: cell-based; conditions: Bacillus subtilis, 168; Table S3
Outline: as §1

[7] = test system: S. aureus 133; assay: MIC broth microdilution, S. aureus; assay type: cell-based; conditions: Staphylococcus aureus, 133; Table S3
Outline: as §1

[8] = test system: T-lymphoblast CCRF-CEM cell line; assay: Cytotoxicity assay (PrestoBlue), CCRF-CEM; conditions: for Cytotoxicity CCRF-CEM: CC50, 72 h
Method: (§2) We finally tested the cytotoxicity of the compounds against four eukaryotic cell lines (Table 2 and Table S5), NRK-52E, an epithelial kidney cell line of Rattus norvegicus; Hep G2, an human epithelial liver cell line; and two suspension cell lines: CCRF-CEM, a T lymphoblast; and H9, a cutaneous T lymphocyte cell line.
(§3) Cell lines stored at −120 °C were thawed to 37 °C and resuspended in 10 mL of medium pre-warmed to 37 °C. Cells were pelleted at 300× g for 10 min, and then resuspended in fresh medium, seeded in a T-75 culture flask, and placed in a CO2 incubator (37 °C with 5% CO2 tension). Once the cells reached approximately 70–80% confluency, they were then passaged regularly. The adherent cell lines NRK52E, HepG2 and Huh 7 were washed once with 10 mL DPBS and detached with Trypsin-EDTA for 5 to 7 min and resuspended in 15 mL of the appropriate medium. The suspension cell line CCRF-CEM were diluted and resuspended in fresh RPMI 1640 PAN medium. To calculate the cell density, the cell resuspensions were diluted 1:6 with DPBS. Equal volumes of cell suspension and Trypan Blue were mixed and gently loaded into a haemocytometer (INCYTO, 31056 Republic of Korea). In each experiment, cell concentrations were adjusted to reach a concentration of 2.5 × 10^3 cell/well for NRK52E, 5 × 10^3 cell/well for HepG2, 6.2 × 10^4 cell/well for CCRF-CEM and 3 × 10^3 for H9. The cells were incubated with decreasing concentration of compounds (1 µL in 96% DMSO) for 72 h at 37 °C with 5% CO2 tension. Cycloheximide, a cytotoxic compound that interferes with the translocation step in eukaryotic protein synthesis was used as a control for the experiments. The assay was carried out in flat-bottom, transparent 96-well plates. Cell viability was determined using the PrestoBlue reagent (Thermo Fisher Scientific, Waltham, MA, USA) according to the manufacture’s protocol. First, 10× PrestoBlue was added to each well to obtain a 1× solution, and incubated at 37 °C for 45 min. Then, fluorescence was measured at Ex/Em: 550/595 nm using a ClarioStar microplate reader (BMG Labtech). Cytotoxicity was determined as the percentage of the difference in absorbance of the untreated sample to the treated sample. CC50 was calculated using the values obtained in each concentration using the sigmoidal dose-response by Prism v.8. The media used in each cell line is detailed in Table S6.

[9] = test system: H9, cutaneous T lymphocyte cell line; assay: Cytotoxicity assay (PrestoBlue), H9; conditions: CC50, 72 h
Method: as §2, §3

Row | SMILES | IC50 Determination with PaPBP3, S2dfluo Assay [1] | IC50 [1] [µM] | MIC [2] [µM] | MIC [3] [µM] | MIC (µM) A. baumanii ATCC15308 [4] [µM] | MIC [5] [µM] | MIC [6] [µM] | MIC [7] [µM] | Cytotoxicity CCRF-CEM [8] [µM] | Cytotoxicity effect (µM) T-lymphocyte H9 [9] [µM] | cytotoxic potential at the tested cell lines ([8]; four cell lines: NRK-52E, Hep G2, CCRF-CEM, H9)
1 | CCN1C(=O)C(O)=C(C(=O)c2ccc(Br)cc2)C1c1ccc(Cl)cc1 (centres unmarked) [Compound 33] | loss of the inhibitory effect | > 100 | > 100 | > 100 | > 100 | 50 (≈ 21 µg/mL) | > 100 | > 100 | 58 ± 6 | > 100 | –
2 | O=C(C1=C(O)C(=O)N(Cc2cscn2)C1c1ccc(Cl)cc1)c1ccc(Br)cc1 (centres unmarked) [Compound 42] | abolished the inhibitory activity | > 100 | > 100 | > 100 | > 100 | > 100 | > 100 | > 100 | >100 | > 100 | –
3 | CCNC1=C(C(=O)c2ccc(Br)cc2)C(c2ccc(Cl)cc2)N(Cc2c[nH]c3ccccc23)C1=O (centres unmarked) [Compound 45] | – | > 100 | > 100 | > 100 | > 100 | 25 (≈ 13.7 µg/mL) | > 100 | 6.25 (≈ 3.43 µg/mL) | – | 32 ± 10 | high cytotoxic potential
